Measured values from US7198803B2, “Sustained release oral preparations” (Nippon Shinyaku Co., Ltd., priority 2000, dated 2007).

What was measured:
[1] = system: calcium-sensitive potassium channel; conditions: known from PCT WO99/36068; cited from earlier work
[2] = plasma half life of the drug; conditions: in vivo

plasma half life [2]: short plasma half life
SMILES: Cc1c(-c2ccccc2F)[nH]c(N)c1C#N [2-amino-3-cyano-5-(2-fluorophenyl)-4-methylpyrrole]
potassium channel activating effect [1]: bladder-selective calcium-sensitive potassium channel activating effect
